Measured values from US20110118348A1, “Methods of stabilizing latanoprost in an aqueous solution” (SANTEN PHARMACEUTICAL CO., LTD., priority 2002, published 2011).
Marks after values point to notes of the source that are not given here.

Assay: Stability Test of Latanoprost 1: residual ratio of latanoprost in phosphate buffer at each pH after storage at 60° C. or 70° C. (HPLC)
Type: physicochemical
Settings: for Residual ratio (%): pH 8.0, phosphate buffer
Method: 1) Latanoprost (0.0025 g) was weighed out in a 50 ml-beaker, a phosphate buffer (50 ml) having each pH (4.0, 5.0, 5.5, 6.0, 6.25, 6.5, 6.7 or 8.0) prepared in advance was added to the beaker, and the mixture was stirred with a magnetic stirrer. The mixture was stirred while warming it in a water bath at about 80° C. for about 30 minutes to dissolve latanoprost. 2) It was confirmed that latanoprost was dissolved, and pH was confirmed. 3) A glass ampoule was charged with each prepared solution (2.5 ml) and sealed by melting it. 4) It was stored at 60° C. or 70° C. 5) Sampling was carried out with time until 28th day after starting storage, latanoprost contents were measured by high performance liquid chromatography, and residual ratios were calculated. Samples having residual ratios of 95% or higher after storage at 60° C. for 28 days and residual ratios of 90% or higher after storage at 70° C. for 28 days were judged to be stable.

Residual ratio (%) after storage for 28 days (60° C., pH 4.0, phosphate buffer): 87.4%
Residual ratio (%) after storage for 28 days (60° C., pH 5.0, phosphate buffer): 98.9%
Residual ratio (%) after storage for 28 days (60° C., pH 5.5, phosphate buffer): 98.0%
Residual ratio (%) after storage for 28 days (60° C., pH 6.0, phosphate buffer): 98.9%
Residual ratio (%) after storage for 28 days (60° C., pH 6.25, phosphate buffer): 95.0%
Residual ratio (%) after storage for 28 days (60° C., pH 6.5, phosphate buffer): 92.4%
Residual ratio (%) after storage for 28 days (60° C., pH 6.7, phosphate buffer): 93.4%
Residual ratio (%) (60° C., value on 21st day): 30.0* %
Residual ratio (%) after storage for 28 days (70° C., pH 4.0, phosphate buffer): 76.7%
Residual ratio (%) after storage for 28 days (70° C., pH 5.0, phosphate buffer): 94.9%
Residual ratio (%) after storage for 28 days (70° C., pH 5.5, phosphate buffer): 94.6%
Residual ratio (%) after storage for 28 days (70° C., pH 6.0, phosphate buffer): 93.1%
Residual ratio (%) after storage for 28 days (70° C., pH 6.25, phosphate buffer): 92.0%
Residual ratio (%) after storage for 28 days (70° C., pH 6.5, phosphate buffer): 82.7%
Residual ratio (%) (70° C., value on 12th day): 14.1** %
Compound: CC(C)OC(=O)CCC/C=C\C[C@@H]1[C@@H](CC[C@@H](O)CCc2ccccc2)[C@H](O)C[C@@H]1O [latanoprost, isopropyl (Z)-7[(1R,2R,3R,5S)3,5-dihydroxy-2-[(3R)-3-hydroxy-5-phenylpentyl]cyclopentyl]-5-heptanoate]
